Test results as given in patent US20160168537A1, “DIFFERENTIATED CELLULAR COMPOSITIONS AND METHODS FOR THEIR PREPARATION AND USE” (LIFE TECHNOLOGIES CORPORATION, priority 2013, published 2016).

Assays:
CYP2B6 [1] = experiment: P450 induction assay in HepaRG cells (CYP2B6 activity, hydroxybupropion formation from bupropion); assay type: cell-based; details: HepaRG cells cultured without matrix overlay; 10 μM RIF, 72 hours of treatment; induction is seen only when the cells are overlayed
Experimental: Cryopreserved HepaRG™ cells (Life Technologies Corporation) are terminally differentiated prior to cryopreservation. Frozen HepaRG™ cells were thawed and plated per manufacturer's instructions and placed into 37° C., 5% CO2 cell culture incubator. 24 hours after plating, media was aspirated and cells were overlayed using 0.35 mg/mL Geltrex® matrix in 4° C. in 770 media. 72 hours after plating, media was aspirated and media was exchanged with either 740 or 750 media containing 0.1% DMSO, 50 μM omeprazole (OMP), 1 mM Phenobarbital (PB), or 10 μM Rifampicin (RIF). 740 and 750 media containing vehicle or prototypical inducers was replaced daily for a total of 72 hours of treatment. Day 6 of culture (24 hours after last dosing), P450 activity was evaluated and total RNA was isolated. P450 activity was evaluated utilizing in situ incubations of prototypical substrates (100 μM phenacetin, 500 bupropion, 10 μM midazolam, or 200 μM testosterone) in Hanks' Balanced Salts Solution (HBSS) for 1 hour at 37° C. shaking on microplate shaker @600 rpm. After in situ incubations were completed, incubation matrix (supernatant/HBSS) was removed from cell monolayer and metabolite formation was evaluated by LC/MS-MS analysis. Microphotographs were taken daily to monitor morphological changes.

CYP2B6 [2] = details: primary human hepatocytes, via PXR activation; stated as typical behaviour; cited from earlier work

## CO[C@H]1/C=C/O[C@@]2(C)Oc3c(C)c(O)c4c(O)c(c(/C=N/N5CCN(C)CC5)c(O)c4c3C2=O)NC(=O)/C(C)=C\C=C\[C@H](C)[C@H](O)[C@@H](C)[C@@H](O)[C@@H](C)[C@H](OC(C)=O)[C@@H]1C [RIF, Rifampicin]
CYP2B6 [1]
  induction of CYP2B6: does not induce
CYP2B6 [2]
  induction of CYP2B6 enzyme activity: induces
